{
  "source": "patent US7074925B1",
  "about": "“N-substituted derivatives of 5-oxyiminobarbituric acid” (priority 1998, dated 2006)",
  "key": {"[1]": {"tested_on": "Human's platelet aggregation", "test": "Antiaggregational properties, ADP-induced platelet aggregation", "assay_type": "cell-based", "conditions": "100 μg/ml, ADP […], platelet-enriched human plasma", "text": "Human's platelet aggregation was investigated in plasma of healthy 50±3 years donors that was enriched by thrombocytes, by means of aggregometer FRM-1. […] Magnitude of a maximum non-reversible platelet aggregation in the control samples (solvent) was adopted as 100%, and that in tested samples was counted as the percentage compared to the control."}, "[2]": {"test": "Psychostimulating activity, symptom score", "assay_type": "in vivo, mice", "conditions": "tested substances perorally 300 mg/kg, one hour after; maximum 30 points, more than 12 significant"}, "[3]": {"tested_on": "primary culture of human lymphocytes (IFN-α production)", "test": "Interferon-inducing activity in primary culture of human lymphocytes", "assay_type": "cell-based"}, "[4]": {"tested_on": "Herpes virus of the type I (HSV-I/Leningrad/248/88)", "test": "Effect on Herpes virus, cytopathogenic action on Vero cells", "assay_type": "cell-based, Herpes Simplex virus", "conditions": "compound 100 μg/ml"}, "C.trachomatis D323": {"tested_on": "C.trachomatis D323", "test": "Action on Chlamydia trachomatis in cell culture", "assay_type": "cell-based", "conditions": "100 mg/l", "procedure": "The antimicrobial activity of the claimed compounds was studied relative to C.trachomatis […], which is a standard strain from the collection of the chair of microbiology of St. Petersburg State Pavlov Medical University. […] Cell cultures McCoy and L929 obtained from the Institute of Cytology of RAS were used in this work. Cells were grown in flasks made of neutral glass in the medium RPMI-1640 with the addition of 10% of fetal calf serum. The test was performed in glass (non-toxic) flat-bottom flasks with cover glasses. The cells were introduced into the medium in the final concentration of […]. […] Simultaneously, tested compounds in a final concentration of 100 mg/l were added to the cells. The sample was centrifuged at 2400 G during 60 minutes at room temperature and incubated at 37° C. for 2 hours. […] The samples were doubled using the medium without cycloheximide so as to exclude its effect on the investigated compounds. The samples were incubated in a CO2-incubator for 48 hours. […] The effect of the action of substance was determined by analysis of the monolayer state and number of cells with CPI when compared with the control (cell culture infected with C.trachomatis […]); in doing so, the number of unchanged cells, that were counted in 100 visual fields obtained using the special net of the microscope eyepiece, was taken into consideration. […] Control of cell culture: morphology of cells and state of monolayer correspond to the given type of the cells; control of chlamydia growth in the cell culture: presence of CPI in the monolayer; control of action of standard antimicrobial agent: reduction of number of CPI in the monolayer as compared to the previous control; control of toxicity of the claimed compounds: toxicity is absent; control of action of solvents: toxic action on cells is absent."}, "[5]": {"test": "Determination of maximal tolerable dose", "assay_type": "in vivo", "conditions": "oral administration, mice, observed 72 hours; 300 was the maximally utilized one", "procedure": "Tested substance was introduced perorally (in dose of 300 mg/kg) through a gastric tube or intraperitoneally (in dose of 100 mg/kg) to no-breed white mice with mass 18-20 g (each tested group consisted of 3 males and 3 females). Then the mouse state was observed during 72 hours. Absence of symptoms characteristic of toxic effects, or absence of animal death during the given time allows to make a conclusion that the toxicity of the test substance is low. If acute toxicity effects are observed, the dose is reduced to find maximal tolerable dose."}, "[6]": {"test": "Antioxidant action, riboflavine chemiluminescence", "assay_type": "biochemical", "conditions": "solvent water, phosphate buffer pH 9.1", "text": "To assess a general antioxidant activity the method of riboflavine chemiluminescence was used. The test substance was introduced into a system consisted of phosphate buffer (pH 9.1), solution of riboflavine, and solution of bivalent iron sulfate. Chemiluminescence was initiated by 0.1% solution of hydrogen peroxide and registered by means of luminometer. […] Ascorbic acid was used as a reference agent."}, "[7]": {"test": "Analgesic activity, tail withdrawal from radiant heat", "assay_type": "in vivo, mice", "procedure": "The time needed to draw back a tail placed under a directed source of radiant heat was estimated in a group of 3 mice. Prolongation of the response time by more than 50% after intraperitoneal dosing a substance (30 mg/kg) indicated analgesic activity. Morphine sulfate (2 mg/kg) was utilized as a reference agent."}},
  "data": [
    {"compound": "Cc1ccccc1N1C(=O)C(=NO)C(=O)NC1=S", "note": "[XLII]", "values": [
      {"measurement": "% of inhibition of platelet aggregation", "setting": "[1]", "value": "35.8 ± 3.2", "unit": "%"},
      {"measurement": "Number of points (psychostimulation)", "setting": "[2]", "value": 15},
      {"measurement": "Content of IFN in induction mixture after 24-hour incubation", "setting": "[3]; substance 1 mg/l", "value": "28.0 ± 1.5", "unit": "IU/3 × 10^4 lymph./ml"},
      {"measurement": "Content of IFN in induction mixture after 24-hour incubation", "setting": "[3]; substance 10 mg/l", "value": "45 ± 1.2", "unit": "IU/3 × 10^4 lymph./ml"},
      {"measurement": "Content of IFN in induction mixture after 24-hour incubation", "setting": "[3]; substance 100 mg/l", "value": "97.5 ± 1.8", "unit": "IU/3 × 10^4 lymph./ml"},
      {"measurement": "Quantity of the unchanged cells (number of cells in 100 visual fields)", "setting": "[4]; Vero cells, 36 hours, cell control 10000", "value": 5000},
      {"measurement": "percentage of protection of cells from virus", "setting": "[4]; compared to the control of cell culture", "value": "(50%)"},
      {"measurement": "percentage of cell protection from infection", "setting": "C.trachomatis D323", "value": "(60%)"},
      {"measurement": "Number of unchanged cells", "setting": "C.trachomatis D323; 48 hours, counted in 100 visual fields, cell control 8.000, infected cells 6.000", "value": 7.200},
      {"measurement": "Maximal tolerable dose, concentration of test substances", "setting": "[5]", "value": 300, "unit": "mg/kg"},
      {"measurement": "IC50, suppressing chemiluminescence by 50%", "setting": "[6]", "value": 9.99, "unit": "µg/mL"},
      {"measurement": "Latent period of response, before dosing", "setting": "[7]; before intraperitoneal 30 mg/kg", "value": 7.8},
      {"measurement": "Latent period of response, 30 minutes after dosing", "setting": "[7]; intraperitoneal 30 mg/kg", "value": 11.3}
    ]}
  ]
}
